Laboratory results published in PMC9043997, “LEAP2 reduces postprandial glucose excursions and ad libitum food intake in healthy men” (Cell Reports Medicine, 2022).
Where a SMILES comes first, the peptide text is derived from it. Bridges are numbered along the chain shown (N, C = ends).

Key:
healthy men [1] = assay: Plasma acetaminophen as indirect marker of gastric emptying, crossover study; format: in vivo, human; details: healthy men n = 20, iv LEAP2 ~25 pmol/kg/min
Source text: The infusion was terminated when participants had finished eating.
For analysis of plasma glucose, blood was distributed in fluoride heparin-coated tubes, centrifuged immediately for 30 s (12,100 g, room temperature) and measured bedside by the glucose oxidase method (YSI 2900 Biochemistry Analyzer; YSI Incorporated, Yellow Springs, Ohio, USA). For analysis of LEAP2, blood was collected in chilled K3EDTA tubes each containing 250 KIU of aprotinin. For analysis of acyl ghrelin, blood was collected in chilled K2EDTA tubes added 20 μL pefabloc (100 mg/mL; Merck Millipore, Burlington, Massachusetts, USA). Subsequently, pefabloc-treated plasma was acidified with HCl (12.5 μL 2M HCl per 500 μL plasma; Merck Millipore, Burlington, Massachusetts, USA). For analysis of glucagon, blood was collected in K2EDTA tubes. For analysis of GH, insulin, C-peptide, free fatty acids, glycerol, triglycerides and acetaminophen (paracetamol), blood was collected in tubes with lithium and heparin. All tubes were immediately cooled on ice, centrifuged for 15 min (2,000 g, 4°C) and stored at −80°C until analysis. LEAP2 concentrations were determined by an in-house radioimmunoassay directed against the N-terminal part of LEAP2. […] The precision and accuracy of the assay were evaluated based on European Medicines Agency's guidelines for bioanalytical assay validation. […] Due to supply chain disruptions from the COVID-19 pandemic, acyl ghrelin was only measured in plasma samples at timepoints 0, 60, 105, 165 and 255 min. […] Plasma GH was measured by Immunodiagnostic system-iSYS assay (IS-3700; IDS Limited, Boldon, UK). […] Glucagon was measured using a C-terminal directed antiserum (code number 4305) measuring glucagon of pancreatic origin as previously described.[40] […] Plasma insulin and C-peptide were measured using a two-sided electrochemiluminescence immunoassay (Atellica IM Analyzer; Siemens Healthcare, Ballerup, Denmark). Plasma triglycerides and acetaminophen were analyzed by spectrophotometric methods following enzymatic hydrolysis and oxidation (Siemens Atellica CH 930; Siemens Healthcare, Ballerup, Denmark). […]

healthy men [2] = assay: Brown adipose tissue thermogenesis by thermal imaging; format: in vivo, human; details: iv LEAP2 ~25 pmol/kg/min, thermal imaging camera
Experimental: To assess BAT thermogenesis, temperature of the upper chest was measured from −10 to 0 min, 0 to 15 min, 90 to 105 min and 180 to 195 min using a thermal imaging camera (FLIR A655sc; FLIR Systems, Wilsonville, Oregon, USA). Participants were positioned approximately one meter from the camera in a hospital bed with slight elevation of the head and wearing long-sleeved shirts that exposed the upper chest. The emissivity for measurement of human skin temperatures was set to 0.98 as detailed by the manufacturer. Thermal images were collected at 30-s intervals and analyzed using the FLIR tools program (FLIR Systems, Wilsonville, Oregon, USA). Post hoc, the two supraclavicular regions and a region corresponding to the manubrium of the sternum were marked as regions of interest and the maximum temperature per image was recorded. An average of records from the two supraclavicular regions was used. The manubrium region was used as a negative control reflecting the overall cutaneous heat production.[37], [38], [39] For analysis of BAT thermogenesis, manubrium-corrected temperature was calculated as the average of the supraclavicular skin temperatures minus the manubrium skin temperature. […] Average room temperature was 22.5 ± 0.06 °C adjusted by two air conditioners (Electrolux EXP35U538CW; AB Electrolux, Stockholm, Sweden) and recorded four times during each experimental day. […]

[3] = 1.5 g acetaminophen in liquid mixed meal at 65 min, marker of gastric emptying, mean ± SEM

CC[C@H](C)[C@@H]1NC(=O)[C@@H]2CSSC[C@@H](C(=O)N[C@@H](CO)C(=O)N[C@@H](CC(C)C)C(=O)N[C@@H](CO)C(=O)N[C@H](C(=O)N[C@@H](C)C(=O)N[C@@H](CCC(N)=O)C(=O)N[C@@H](CCC(=O)O)C(=O)O)C(C)C)NC(=O)[C@H](CCCNC(=N)N)NC(=O)[C@H](CCCNC(=N)N)NC(=O)[C@H](CCCCN)NC(=O)[C@H](CCCNC(=N)N)NC(=O)[C@H](CSSC[C@H](NC(=O)[C@H](CO)NC(=O)[C@H](C)NC(=O)CNC(=O)[C@@H](NC(=O)[C@@H]3CCCN3C(=O)[C@H](CCCNC(=N)N)NC(=O)[C@H](CC(C)C)NC(=O)[C@H](CO)NC(=O)[C@@H](NC(=O)CNC(=O)[C@H](CCCNC(=N)N)NC(=O)[C@H](Cc3c[nH]c4ccccc34)NC(=O)[C@H](Cc3ccccc3)NC(=O)[C@@H]3CCCN3C(=O)[C@@H](NC(=O)[C@@H](N)CCSC)[C@@H](C)O)C(C)C)[C@@H](C)CC)C(=O)N[C@@H](CCCNC(=N)N)C(=O)N[C@@H](CC(=O)O)C(=O)N[C@@H](CC(=O)O)C(=O)N[C@@H](CO)C(=O)N[C@@H](CCC(=O)O)C(=O)N2)NC(=O)[C@H](CC(C)C)NC(=O)[C@H](CCCNC(=N)N)NC(=O)[C@H]([C@@H](C)O)NC1=O [LEAP2, liver-expressed antimicrobial peptide 2] (H-MTPFWRGVSLRPIGASCRDDSECITRLCRKRRCSLSVAQE-OH; disulfide 17-28, 23-33 (inferred); N-terminus and C-terminus assumed)
Acetaminophen Peak (healthy men [1]; [3]): 65.1 ± 2.52 µmol/L
Acetaminophen Time to peak (healthy men [1]; [3]): 209 ± 6.34 min
gastric emptying rate of a liquid mixed meal (healthy men [1]; by plasma acetaminophen, vs placebo): does not alter gastric emptying rate
BAT thermogenesis (manubrium-corrected supraclavicular skin temperature), LEAP2 vs placebo (healthy men [2]): no differences
